# Tests used:
# [1] = target: recombinant 11β-HSD1 enzyme (Homo sapiens (Human), UniProt P28845); experiment: 11β-HSD1 reductase activity (HTRF Cortisol Kit); type: biochemical; conditions: 266 nM cortisone, 333 μM NADPH, read-out: 11b-HSD1 reductase (HTRF) IC50
# Procedure: Determination of 11β-HSD1 Reductase Activity
# First, stock solutions of the compounds were prepared in DMSO at a concentration of […], of which serial dilutions were made in order to determine the efficacy curve.
# As for the recombinant 11β-HSD1 enzyme (Cayman Chemical, MI, USA; Item No. 10007815), it was prepared in Tris Buffer 20 mM EDTA 5 mM pH 6.0 (Tris buffer) at different dilutions.
# Initially, the enzyme concentration to be used in the assays in order to evaluate the biological activity of the compounds was determined. The Cortisol Kit product (Cisbio, MA, USA; Cat no. 62CRTPEG) was used for that purpose.
# The protocol consisted of preparing the reaction buffer, adding 266 nM cortisone and 333 μM NADPH in Tris buffer. Then, this reaction buffer is added to the wells of the HTRF (Homogeneous Time Resolved Fluorescence) reaction plate together with the enzyme in a 4:1 ratio respectively, and incubated for 2 hours at 37° C. In the case of the control wells, two wells with Tris buffer were added, without compounds.
# After the incubation time, the reagents of the Cortisol kit were added, Cortisol d2 and Cortisol cryptate in sample ratio, Cortisol d2 and cortisol cryptate 2:1:1, in a quantity according to the size of the well as indicated by the supplier (for the negative control of the kit, the cortisol d2 is replaced by the kit's reconstitution buffer). This reaction is incubated for 1 hour at room temperature in order to later read the fluorescence at 665 and 620 nm.
# Once the enzyme concentration to be used has been determined, the cortisol kit protocol is continued to determine the efficacy curve for the compounds. As previously done, a plate for HTRF was prepared adding to each well of the reaction buffer, the recombinant 11β-HSD1 enzyme and the compounds to be assayed in a 3:1:1 ratio, respectively. The plate was subsequently incubated at 37° C. for 2 hours.
# After the incubation time, the reagents of the cortisol kit, cortisol d2 and cortisol cryptate, are added, and were incubated again for 1 hour at room temperature. Finally, the fluorescence of each well was determined at 665 and 620 nm.
# [2] = Aqueous solubility in the gastrointestinal pH range; type: physicochemical
# Procedure: A stock solution of 100 mM was prepared in DMSO that was added in volumes established on the buffers until the appearance of turbidity was observed. These solutions were prepared in triplicate in final DMSO concentrations of 0.5 to 5.0% V/V of each buffer, then were incubated at 37° C. with vigorous stirring for 48 hours, then another 48 hours but without stirring. The samples were centrifuged and the supernatant was diluted with mobile phase chromatography to be later analyzed by μHPLC-Ms/Ms. The solubility value at each pH was obtained from the intercept of the straight line solubility versus % DMSO. Table 6 presents the aqueous solubility values of BD-40 in the pH range 1.2-6.8.
# plasma proteins = experiment: Plasma protein binding (Transil XL PPB Binding Kit); type: in vitro ADME
# Text: To carry out this study, the commercial Transil XL PPB Binding Kit, v2, Sovicell was used, following the manufacturer's recommendations.
# [3] = In vivo pharmacokinetics in mice, IV and oral; parameters: species or system male C57BL/6J mice
# Procedure: The animals were classified according to weight and divided into the following groups (Table 7):
# 20% Kolliphor and 50% PBS at a concentration of 1 mg/mL. From this solution, a 0.4 mg/mL dilution was made for IV administration.
# In intravenous (IV) administration, after each compound was administered to the mice, the mice were separated into groups of 3 and were euthanized at times 5, 10, 15, 30, 60, 120, 240, 260, 480 and 1440 minutes. For oral administration (V.O), the mice were separated into groups of 3 and were euthanized at times 15, 30, 60, 120, 240, 260, 480 and 1440 minutes. To obtain zero-time assays, mice were used to which no compound was administered.
# Whole blood was obtained from each animal (in microtubes with EDTA); these samples were centrifuged at 9000 g at a temperature of 4° C. for a period of 5 minutes, obtaining the plasma which was stored at −80° C.
# In addition, organs such as brain, liver, muscle, epididymal fat, heart and kidney were obtained from the animals, which were frozen in liquid nitrogen and stored at −80° C.
# Plasma samples and brain, liver, epididymal fat, and muscle (tissue) samples were analyzed. 2× in volume of water (weight/volume) was added to the tissue samples while 4× in volume of water (weight/volume) was added to the muscle mixture, after which they were homogenized using a Bullet Blender equipment (Next Advance, USA).
# All samples were analyzed as a single point by LC-MS/MS in accordance with the analytical methodology already standardized and presented in application example 3.
# To begin, a calibration curve was run. For this purpose, the controls, the plasma and organ samples were prepared by adding 180 μL of cold acetonitrile to these, then vortexed for 15 seconds and centrifuged at 6100 g for 30 seconds at 4° C. The supernatant which was obtained from this procedure was diluted in 2 volumes of 0.2% formic acid in water and transferred to a vial that will allow it to be injected into LC-MS/MS.
# The conditions for the LC-MS/MS analysis were: • HPLC: Eksigent UltraLC 100 • Autosampler: Eksigent UltraLC 100-XL at RT • Mobile phase: A-0.1% formic acid in water; B-0.1% formic acid in acetonitrile. • Column: YMC Triart 1.9 μm; 2.0×50 mm • Injection volume: 2 μL • Gradient: 5% B for 0.25 min→5-95% B for 0.75 min→95% B for 2 min→95-5% B for 0.25 min→5% B for 0.25 min • Flow: 0.6 mL/min • Mass Spectrometer: Applied Biosystems/SCIEX QTRAP 4500 • Interface: TurbolonSpray (ESI) at 600° C. • Software: Analyst.
# [4] = tested on: Madin-Darby Canine Kidney (MDCK) cells transfected with human P-glycoprotein (hMDR1); conditions: MDCK-MDR1
# Procedure: Madin-Darby Canine Kidney (MDCK) cells were used in this assay, which are stably transfected with the gene encoding human P-glycoprotein (hMDR1). These cells were cultured in DMEM medium (Dulbecco's Modified Eagle's Medium) high in glucose and supplemented with 10% fetal bovine serum, 1% 5 mM pyruvate, 1% non-essential amino acids solution X5, 20,000 IU/mL of penicillin G and 20,000 IU/mL of streptomycin, a temperature of 37° C., 90% relative humidity and 5% CO2. These cells were seeded in sterile plates on the fourth day of growth or until reaching 90% confluence.
# Ten days before carrying out the transport analysis, cells were seeded in Transwells® inserts (1.12 cm2) at a density of 60,000 cells/cm^2. The monolayers were supplemented every two days with fresh culture medium. […] In parallel, B-A experiments were performed (1.5 mL of donor solution in basolateral compartment and 0.5 mL buffer in apical). The monolayers were incubated while stirring (50 rpm) at a temperature of 37° C. for a period of 2 hours. Additionally, this assay was performed in the presence of the Pgp inhibitor elacridar (5 μM). After the stir time, the inserts were removed, the compartments were sampled and the cells were transferred to HPLC vials by diluting these samples with mobile phase chromatography. These samples were kept at −20° C. until their analysis time. […]
# Sequence of recombinant 11β-HSD1 enzyme (P28845 whole entry): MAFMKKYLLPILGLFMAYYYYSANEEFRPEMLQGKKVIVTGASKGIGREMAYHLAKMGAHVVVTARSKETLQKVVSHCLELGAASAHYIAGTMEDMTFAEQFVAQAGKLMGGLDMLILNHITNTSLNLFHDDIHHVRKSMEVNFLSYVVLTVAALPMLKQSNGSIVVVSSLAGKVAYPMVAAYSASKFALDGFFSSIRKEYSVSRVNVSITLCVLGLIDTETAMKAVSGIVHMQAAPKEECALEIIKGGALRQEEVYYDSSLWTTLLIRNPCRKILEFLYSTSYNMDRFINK
smiles,measurement,setting,value
"Cc1cccc(CCc2nc(C34CC5CC(CC(C5)C3)C4)no2)c1 [BD-40, 1-(3-methylphenyl)-2-(3-adamantyl-1,2,4-oxadiazol-5-yl)ethane]",IC50,[1],11.8 nM
same,Solubility,"[2]; pH 1.7, 37° C.",96.16 µg/mL
same,Solubility,"[2]; pH 4.5, 37° C.",64.12 µg/mL
same,Solubility,"[2]; pH 6.8, 37° C.",59.23 µg/mL
same,plasma protein binding,plasma proteins,98.3±1.9%
same,AUCExtr,"[3]; IV, 2 mg/Kg, plasma",5.240%
same,AUCInf,"[3]; IV, 2 mg/Kg, plasma",623 ng·h/mL
same,AUCfinal,"[3]; IV, 2 mg/Kg, plasma",649 ng·h/mL
same,C0/Cmax,"[3]; IV, 2 mg/Kg, plasma",2200 ng/mL
same,CL,"[3]; IV, 2 mg/Kg, plasma",53.5 mL/min/kg
same,MRTInf,"[3]; IV, 2 mg/Kg, plasma",87.6 min
same,Vz,"[3]; IV, 2 mg/Kg, plasma",15.30 L/kg
same,t1/2,"[3]; IV, 2 mg/Kg, plasma",198 min
same,AUCExtr,"[3]; PO, dose 3 mg/Kg, plasma",3.6%
same,AUCInf,"[3]; PO, dose 3 mg/Kg, plasma",596 ng·h/mL
same,AUCfinal,"[3]; PO, dose 3 mg/Kg, plasma",575 ng·h/mL
same,C0/Cmax,"[3]; PO, dose 3 mg/Kg, plasma",393 ng/mL
same,CL,"[3]; PO, dose 3 mg/Kg, plasma",280 mL/min/kg
same,F,"[3]; PO, dose 3 mg/Kg, plasma",19.1%
same,Vz,"[3]; PO, dose 3 mg/Kg, plasma",168 L/kg
same,t1/2,"[3]; PO, dose 3 mg/Kg, plasma",32.3 min
same,tmax,"[3]; PO, dose 3 mg/Kg, plasma",30 min
same,mean time (of elimination) of the drug,"[3]; administered intravenously, plasma",3.30 h
same,mean time (of elimination) of the drug,"[3]; administered orally, plasma",0.864 h
same,"detection in tissues (brain, liver, fat, muscle)",[3]; oral and intravenous administration,can be detected in the different tissues
same,bioavailability / apparent availability,[3]; plasma,good bioavailability
same,Papp compared with high permeability marker minoxidil,[4],higher than those of the high permeability marker minoxidil

# From patent US12304894B2, “Derivatives of adamantyl oxadiazoles and pharmaceutically acceptable solvates, hydrates and salts thereof, pharmaceutical composition comprising same, synthesis method, suitable for use as effective and selective inhibitors of the reductase activity of the enzyme 11-beta dehydrogenase type 1 …” (PONTIFICIA UNIVERSIDAD CATOLICA DE CHILE, priority 2019, dated 2025)
